Reference: PubChem BioAssay AID274 (DTP/NCI, 2004)
Inconclusive results and toxic doses are left out. Rule for the calls: active = survival T/C of 150% or more; inactive = T/C below 125% in these data.

System: BDF1 mice, Lewis lung carcinoma iv, survival T/C
Assay: NCI In Vivo Anticancer Drug Screen. Data for tumor model Lewis Lung Carcinoma (intravenous) in B6D2F1 (BDF1) mice
Details: endpoint: median survival time, higher = longer survival
Procedure: The antitumor activity of compounds was measured in mice bearing transplantable tumors. Survival or tumor size were measured and the results are expressed as the measurement made in the treated group (T) divided by the measurement made in the vehicle treated control group (C). The tumor model used in this assay is Lewis Lung Carcinoma (intravenous) in B6D2F1 (BDF1) mice

[1] = dose: 0.31 mg/kg/injection, schedule: Q01DX009 (ip), vehicle: saline
[2] = dose: 1.25 mg/kg/injection, schedule: Q01DX009 (ip), vehicle: saline
[3] = dose: 2.5 mg/kg/injection, schedule: Q01DX009 (ip), vehicle: saline
[4] = dose: 5.0 mg/kg/injection, schedule: Q01DX009 (ip), vehicle: saline
[5] = dose: 0.78 mg/kg/injection, schedule: Q01DX009 (ip), vehicle: saline with Tween-80
[6] = dose: 1.56 mg/kg/injection, schedule: Q01DX009 (ip), vehicle: saline with Tween-80
[7] = dose: 6.25 mg/kg/injection, schedule: Q01DX009 (ip), vehicle: saline with Tween-80
[8] = dose: 12.5 mg/kg/injection, schedule: Q01DX009 (ip), vehicle: saline with Tween-80
[9] = dose: 3.12 mg/kg/injection, schedule: Q01DX009 (ip), vehicle: saline with Tween-80

Measured: T/C

O.O.[NH-]C1CCCCC1[NH-].[Pt+2] (stereo not drawn)
inactive: dose: 0.31 mg/kg/injection, schedule: Q01DX009 (ip), vehicle: dextrose 95 % of control | dose: 2.5 mg/kg/injection, schedule: Q01DX009 (ip), vehicle: dextrose 99 % of control | dose: 5.0 mg/kg/injection, schedule: Q01DX009 (ip), vehicle: dextrose 112 % of control | dose: 10.0 mg/kg/injection, schedule: Q01DX009 (ip), vehicle: dextrose 117 % of control

O=P1(NCCCl)OCCC(OO)N1CCCl (stereo not drawn)
inactive: dose: 101.0 mg/kg/injection, schedule: Q01DX001 (ip), vehicle: Klucel (hydroxypropylcellulose) (HPC) 117 % of control
active: dose: 69.0 mg/kg/injection, schedule: Q01DX001 (ip), vehicle: Klucel (hydroxypropylcellulose) (HPC) 150 % of control | dose: 230.0 mg/kg/injection, schedule: Q01DX001 (ip), vehicle: Klucel (hydroxypropylcellulose) (HPC) 160 % of control

COc1cc2cc(c1Cl)N(C)C(=O)C[C@H](OC(=O)[C@H](C)N(C)C(C)=O)[C@]1(C)O[C@H]1[C@H](C)[C@@H]1C[C@@](O)(NC(=O)O1)[C@H](OC)C=C/C=C(\C)C2
inactive: dose: 54.0 micrograms/kg/injection, schedule: Q04DX003 (ip), vehicle: water 94 % of control | dose: 90.0 micrograms/kg/injection, schedule: Q04DX003 (ip), vehicle: water 94 % of control | dose: 150.0 micrograms/kg/injection, schedule: Q04DX003 (ip), vehicle: water 90 % of control

C/C=C(\C)c1cc(=O)c2c(C)cc3c(c2o1)C(=O)c1c(O)c(C2CC(C)(N(C)C)C(OC(C)=O)C(C)O2)cc(C2CC(N(C)C)C(O)C(C)O2)c1C3=O (stereo not drawn)
inactive: dose: 0.15 mg/kg/injection, schedule: Q01DX009 (ip), vehicle: saline 104 % of control | [1] 101 % of control | dose: 0.62 mg/kg/injection, schedule: Q01DX009 (ip), vehicle: saline 107 % of control | [2] 98 % of control | [3] 103 % of control | [4] 119 % of control

Oc1ccc2ccccc2c1N=Nc1ccc(F)cc1
inactive: dose: 100.0 mg/kg/injection, schedule: Q01DX009 (ip), vehicle: saline with Tween-80 106 % of control | dose: 200.0 mg/kg/injection, schedule: Q01DX009 (ip), vehicle: saline with Tween-80 91 % of control | dose: 400.0 mg/kg/injection, schedule: Q01DX009 (ip), vehicle: saline with Tween-80 106 % of control

Cc1nc(N)nc(N)c1-c1ccc(Cl)c(Cl)c1
inactive: [1] 108 % of control | dose: 0.63 mg/kg/injection, schedule: Q01DX009 (ip), vehicle: saline 109 % of control | [2] 113 % of control | [3] 120 % of control | [4] 109 % of control

CC(=O)OCC1OC(n2cnc3c(=S)nc[nH]c32)C(OC(C)=O)C1OC(C)=O (stereo not drawn)
inactive: dose: 50.0 mg/kg/injection, schedule: Q01DX009 (ip), vehicle: suspension in saline 100 % of control

NC(N)=NC(N)=Nc1ccc(-c2ccc(N=C(N)N=C(N)N)cc2)cc1
inactive: [5] 110 % of control | [6] 110 % of control | dose: 3.13 mg/kg/injection, schedule: Q01DX009 (ip), vehicle: saline with Tween-80 99 % of control | [7] 90 % of control | [8] 113 % of control

CC(C)(C)N1CC1CNC(=O)C(=O)NCC1CN1C(C)(C)C (stereo not drawn)
inactive: [5] 111 % of control | [6] 105 % of control | [9] 98 % of control | [7] 105 % of control | [8] 117 % of control

CCc1nc(N)nc(N)c1-c1ccc(Cl)c([N+](=O)[O-])c1
inactive: [6] 100 % of control | [9] 98 % of control | [7] 111 % of control | [8] 111 % of control

O=C(O)/C=C/C(=O)Nc1ccc(Cl)c(Cl)c1
inactive: dose: 12.5 mg/kg/injection, schedule: Q01DX009 (ip), vehicle: Klucel (hydroxypropylcellulose) (HPC) 102 % of control | dose: 25.0 mg/kg/injection, schedule: Q01DX009 (ip), vehicle: Klucel (hydroxypropylcellulose) (HPC) 99 % of control | dose: 50.0 mg/kg/injection, schedule: Q01DX009 (ip), vehicle: Klucel (hydroxypropylcellulose) (HPC) 98 % of control | dose: 100.0 mg/kg/injection, schedule: Q01DX009 (ip), vehicle: Klucel (hydroxypropylcellulose) (HPC) 104 % of control
